Test results published in PubChem BioAssay (NCI).
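Assay format: 96-well plates, 48-hour exposure. GI50 is the concentration that inhibits growth by half. TGI is the concentration that stops growth completely.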

What was measured:
Assay in all cases: NCI-60 cell line screen, 48 h
NCI-H23 lung = tested on: NCI-H23 lung
CAKI-1 renal = tested on: CAKI-1 renal
NCI/ADR-RES ovarian = tested on: NCI/ADR-RES ovarian
K-562 leukemia = tested on: K-562 leukemia
OVCAR-8 ovarian = tested on: OVCAR-8 ovarian
DU-145 prostate = tested on: DU-145 prostate
HOP-62 NSCLC = tested on: HOP-62 NSCLC
MOLT-4 leukemia = tested on: MOLT-4 leukemia
SK-MEL-28 melanoma = tested on: SK-MEL-28 melanoma
UACC-62 melanoma = tested on: UACC-62 melanoma

`CC1=C(/C=C/C(C)=C/C=C/C(C)=C/C(=O)O)C(C)(C)CCC1` was tested, and the TGI (NCI-H23 lung) was 79.3 µM, the TGI (CAKI-1 renal) was greater than 93.2 µM and the TGI (NCI/ADR-RES ovarian) was 70 µM. For the same compound, the TGI (K-562 leukemia) was greater than 79.9 µM, the TGI (OVCAR-8 ovarian) was greater than 77.9 µM and the TGI (DU-145 prostate) was greater than 100 µM. For the same compound, the TGI (HOP-62 NSCLC) was 66 µM, the TGI (MOLT-4 leukemia) was 69.1 µM and the TGI (SK-MEL-28 melanoma) was greater than 82.2 µM. It also gave a TGI (UACC-62 melanoma) greater than 77.4 µM.

In the case of `COC(=O)c1cc2c3ccccc3[nH]c2c2sccc12`, the GI50 (NCI-H23 lung) is reported as 33.8 µM, the TGI (NCI-H23 lung) is reported as greater than 100 µM and the GI50 (CAKI-1 renal) is reported as 13.7 µM. The TGI (CAKI-1 renal) was 98.3 µM, the GI50 (NCI/ADR-RES ovarian) was 28.1 µM and the TGI (NCI/ADR-RES ovarian) was greater than 100 µM. For the same compound, the GI50 (K-562 leukemia) was 15.2 µM, the TGI (K-562 leukemia) was greater than 100 µM and the GI50 (OVCAR-8 ovarian) was 38.3 µM. The TGI (OVCAR-8 ovarian) was greater than 100 µM, the GI50 (DU-145 prostate) was 19.7 µM and the TGI (DU-145 prostate) was 66.5 µM. It also gave a GI50 (HOP-62 NSCLC) of 11.2 µM, a TGI (HOP-62 NSCLC) of 39.8 µM and a GI50 (MOLT-4 leukemia) of 15.7 µM. It also gave a TGI (MOLT-4 leukemia) greater than 100 µM, a GI50 (SK-MEL-28 melanoma) of 40.4 µM and a TGI (SK-MEL-28 melanoma) greater than 100 µM. It also gave a GI50 (UACC-62 melanoma) of 22.3 µM and a TGI (UACC-62 melanoma) greater than 100 µM.

`O=C(N/N=C/c1ccc(O)cc1O)c1cccc(Nc2ccnc(C(F)(F)F)c2)c1` gave a GI50 (NCI-H23 lung) of 3.8 µM, a TGI (NCI-H23 lung) of 27.4 µM and a GI50 (CAKI-1 renal) of 1.99 µM. The TGI (CAKI-1 renal) was 22.5 µM, the GI50 (NCI/ADR-RES ovarian) was 9.05 µM and the TGI (NCI/ADR-RES ovarian) was greater than 90.1 µM. For the same compound, the GI50 (K-562 leukemia) was 0.587 µM, the TGI (K-562 leukemia) was 19.4 µM and the GI50 (OVCAR-8 ovarian) was 0.716 µM. For the same compound, the TGI (OVCAR-8 ovarian) was 32.9 µM, the GI50 (DU-145 prostate) was 1.93 µM and the TGI (DU-145 prostate) was 20.9 µM. For the same compound, the GI50 (HOP-62 NSCLC) was 0.709 µM, the TGI (HOP-62 NSCLC) was 24.7 µM and the GI50 (MOLT-4 leukemia) was 0.491 µM. The TGI (MOLT-4 leukemia) was 4.56 µM, the GI50 (SK-MEL-28 melanoma) was 1.83 µM and the TGI (SK-MEL-28 melanoma) was 16.6 µM. For the same compound, the GI50 (UACC-62 melanoma) was 0.33 µM and the TGI (UACC-62 melanoma) was 7.37 µM.

`CN(C)CCNc1c2ccccc2nc2oc3ccccc3c12` showed a GI50 (CAKI-1 renal) of 14.5 µM, a TGI (CAKI-1 renal) greater than 100 µM and a GI50 (NCI/ADR-RES ovarian) of 9 µM. For the same compound, the TGI (NCI/ADR-RES ovarian) was greater than 100 µM, the GI50 (K-562 leukemia) was 5.22 µM and the TGI (K-562 leukemia) was greater than 100 µM. It also gave a GI50 (OVCAR-8 ovarian) of 6.66 µM, a TGI (OVCAR-8 ovarian) greater than 100 µM and a GI50 (DU-145 prostate) of 4.35 µM. The TGI (DU-145 prostate) was 17.9 µM, the GI50 (HOP-62 NSCLC) was 7.97 µM and the TGI (HOP-62 NSCLC) was 42.6 µM. For the same compound, the GI50 (MOLT-4 leukemia) was 3 µM, the TGI (MOLT-4 leukemia) was 12.1 µM and the GI50 (SK-MEL-28 melanoma) was 11.8 µM. For the same compound, the TGI (SK-MEL-28 melanoma) was 25.3 µM, the GI50 (UACC-62 melanoma) was 10.1 µM and the TGI (UACC-62 melanoma) was 23.5 µM.

Work on `Cc1cc(-c2ccccn2)cc(C)c1/C=C/c1cncc(-c2nn[nH]n2)c1` yielded a GI50 (NCI-H23 lung) greater than 25 µM, a TGI (NCI-H23 lung) greater than 25 µM and a GI50 (CAKI-1 renal) greater than 25 µM. For the same compound, the TGI (CAKI-1 renal) was greater than 25 µM, the GI50 (NCI/ADR-RES ovarian) was greater than 25 µM and the TGI (NCI/ADR-RES ovarian) was greater than 25 µM. It also gave a GI50 (K-562 leukemia) greater than 25 µM, a TGI (K-562 leukemia) greater than 25 µM and a GI50 (OVCAR-8 ovarian) greater than 25 µM. It also gave a TGI (OVCAR-8 ovarian) greater than 25 µM, a GI50 (DU-145 prostate) greater than 25 µM and a TGI (DU-145 prostate) greater than 25 µM. It also gave a GI50 (HOP-62 NSCLC) greater than 25 µM, a TGI (HOP-62 NSCLC) greater than 25 µM and a GI50 (MOLT-4 leukemia) greater than 25 µM. For the same compound, the TGI (MOLT-4 leukemia) was greater than 25 µM, the GI50 (SK-MEL-28 melanoma) was greater than 25 µM and the TGI (SK-MEL-28 melanoma) was greater than 25 µM. The GI50 (UACC-62 melanoma) was greater than 25 µM and the TGI (UACC-62 melanoma) was greater than 25 µM.

Compound `CCOC(=O)C#Cc1c(C(=O)OCC)nnn1Cc1ccc([N+](=O)[O-])cc1` has a GI50 (NCI-H23 lung) of 8.2 µM, a TGI (NCI-H23 lung) of 26.9 µM and a GI50 (CAKI-1 renal) of 1.76 µM. For the same compound, the TGI (CAKI-1 renal) was 3.3 µM, the GI50 (NCI/ADR-RES ovarian) was 5.5 µM and the TGI (NCI/ADR-RES ovarian) was 21.1 µM. For the same compound, the GI50 (K-562 leukemia) was 1.32 µM, the TGI (K-562 leukemia) was 10.7 µM and the GI50 (OVCAR-8 ovarian) was 3.72 µM. It also gave a TGI (OVCAR-8 ovarian) of 11.1 µM, a GI50 (DU-145 prostate) of 3.88 µM and a TGI (DU-145 prostate) of 14.2 µM. It also gave a GI50 (HOP-62 NSCLC) of 17.3 µM, a TGI (HOP-62 NSCLC) of 31.6 µM and a GI50 (MOLT-4 leukemia) of 2.16 µM. For the same compound, the TGI (MOLT-4 leukemia) was 13.3 µM, the GI50 (SK-MEL-28 melanoma) was 3.03 µM and the TGI (SK-MEL-28 melanoma) was 10.2 µM. It also gave a GI50 (UACC-62 melanoma) of 1.83 µM and a TGI (UACC-62 melanoma) of 4.42 µM.

`NS(=O)(=O)c1ccc(N(/C=C/C(=O)C(F)(F)F)Cc2ccc(Cl)cc2)cc1` showed a GI50 (NCI-H23 lung) of 21.8 µM, a TGI (NCI-H23 lung) of 64.3 µM and a GI50 (CAKI-1 renal) of 24.4 µM. For the same compound, the TGI (CAKI-1 renal) was 72.7 µM, the GI50 (NCI/ADR-RES ovarian) was 15.3 µM and the TGI (NCI/ADR-RES ovarian) was 54.9 µM. For the same compound, the GI50 (K-562 leukemia) was 38.9 µM, the TGI (K-562 leukemia) was greater than 100 µM and the GI50 (OVCAR-8 ovarian) was 24.3 µM. The TGI (OVCAR-8 ovarian) was 63.1 µM, the GI50 (DU-145 prostate) was 22.1 µM and the TGI (DU-145 prostate) was 66 µM. The GI50 (HOP-62 NSCLC) was 20 µM, the TGI (HOP-62 NSCLC) was 53.8 µM and the GI50 (MOLT-4 leukemia) was 40.1 µM. It also gave a TGI (MOLT-4 leukemia) greater than 100 µM, a GI50 (SK-MEL-28 melanoma) of 29.3 µM and a TGI (SK-MEL-28 melanoma) greater than 100 µM. It also gave a GI50 (UACC-62 melanoma) of 20.3 µM and a TGI (UACC-62 melanoma) of 45.3 µM.

Work on `O=C(/C=C/C12c3ccccc3C(c3ccccc31)C1C(=O)NC(=O)C12)c1ccc(F)cc1` (stereo unspecified) yielded a GI50 (NCI-H23 lung) of 1.83 µM, a TGI (NCI-H23 lung) of 3.91 µM and a GI50 (CAKI-1 renal) of 1.87 µM. It also gave a TGI (CAKI-1 renal) of 4.37 µM, a GI50 (NCI/ADR-RES ovarian) of 1.87 µM and a TGI (NCI/ADR-RES ovarian) of 4.03 µM. For the same compound, the GI50 (K-562 leukemia) was 1.42 µM, the TGI (K-562 leukemia) was 4.75 µM and the GI50 (OVCAR-8 ovarian) was 1.86 µM. It also gave a TGI (OVCAR-8 ovarian) of 4.84 µM, a GI50 (DU-145 prostate) of 1.63 µM and a TGI (DU-145 prostate) of 3 µM. For the same compound, the GI50 (HOP-62 NSCLC) was 2.63 µM, the TGI (HOP-62 NSCLC) was 7.4 µM and the GI50 (MOLT-4 leukemia) was 0.457 µM. It also gave a TGI (MOLT-4 leukemia) of 2.9 µM, a GI50 (SK-MEL-28 melanoma) of 1.85 µM and a TGI (SK-MEL-28 melanoma) of 3.39 µM. For the same compound, the GI50 (UACC-62 melanoma) was 1.68 µM and the TGI (UACC-62 melanoma) was 3.48 µM.

`[N-]=[N+]=NCCCn1c2c(c3ccc([N+](=O)[O-])cc3c1=O)C(=O)c1cc(F)ccc1-2` was tested, and the GI50 (NCI-H23 lung) was 2.69 µM, the TGI (NCI-H23 lung) was 19 µM and the GI50 (CAKI-1 renal) was 0.288 µM. It also gave a TGI (CAKI-1 renal) of 4.68 µM, a GI50 (NCI/ADR-RES ovarian) of 1.46 µM and a TGI (NCI/ADR-RES ovarian) greater than 49 µM. The GI50 (K-562 leukemia) was 1.25 µM, the TGI (K-562 leukemia) was greater than 100 µM and the GI50 (OVCAR-8 ovarian) was 2.67 µM. It also gave a TGI (OVCAR-8 ovarian) greater than 100 µM, a GI50 (DU-145 prostate) of 0.547 µM and a TGI (DU-145 prostate) greater than 63.5 µM. The GI50 (HOP-62 NSCLC) was 0.32 µM, the TGI (HOP-62 NSCLC) was 7.04 µM and the GI50 (MOLT-4 leukemia) was 0.245 µM. It also gave a TGI (MOLT-4 leukemia) of 2.7 µM, a GI50 (SK-MEL-28 melanoma) of 11.9 µM and a TGI (SK-MEL-28 melanoma) greater than 100 µM. For the same compound, the GI50 (UACC-62 melanoma) was 0.523 µM and the TGI (UACC-62 melanoma) was 3.55 µM.

With `CO/N=C(\COc1ccc2oc(-c3ccccc3)cc(=O)c2c1)c1ccc(OC)cc1` the GI50 (NCI-H23 lung) was 32.4 µM, the TGI (NCI-H23 lung) was greater than 100 µM and the GI50 (CAKI-1 renal) was 22.7 µM. For the same compound, the TGI (CAKI-1 renal) was 69.2 µM, the GI50 (NCI/ADR-RES ovarian) was 21.9 µM and the TGI (NCI/ADR-RES ovarian) was 51.4 µM. For the same compound, the GI50 (K-562 leukemia) was 27.3 µM, the TGI (K-562 leukemia) was greater than 100 µM and the GI50 (OVCAR-8 ovarian) was 31.8 µM. For the same compound, the TGI (OVCAR-8 ovarian) was greater than 100 µM, the GI50 (DU-145 prostate) was 31 µM and the TGI (DU-145 prostate) was greater than 100 µM. It also gave a GI50 (HOP-62 NSCLC) of 17 µM, a TGI (HOP-62 NSCLC) of 33 µM and a GI50 (SK-MEL-28 melanoma) of 30.7 µM. For the same compound, the TGI (SK-MEL-28 melanoma) was greater than 100 µM, the GI50 (UACC-62 melanoma) was 27 µM and the TGI (UACC-62 melanoma) was 84.7 µM.
